Results on 2 compounds are retold here after patent US8097709B2, “Macrolactam compounds” (Novobiotic Pharmaceuticals, Inc., priority 2007, dated 2012).

The test system of series [1] is B. subtilis 1A1. Kind of series: Growth inhibition on solid agar (5 μl spot on bacterial lawn). Type of series: cell-based. Particulars: minimal concentration giving observable zone of no growth, MHB agar.
The subject of the next series is B. anthracis Sterne. It counts as cell-based. Particulars: minimal concentration giving observable zone of no growth, MHB agar.
The test system of series [2] is MRSA NRS108. Description: Growth inhibition on solid agar (5 μl spot on bacterial lawn). Type of series: cell-based, Staphylococcus aureus. Particulars: minimal concentration giving observable zone of no growth, MHB agar.
The next series has as its system C. difficile 196. Kind of series: Minimal Inhibitory Concentration in broth. Particulars: Clostridioides difficile, MHB + 0.05% BSA. Type of series: cell-based.
Another series relates to MSSA 33591. Description: Minimal Inhibitory Concentration in broth. Type of series: cell-based. Particulars: Staphylococcus aureus.
Another series deals with MSSA 29213. Kind of series: Minimal Inhibitory Concentration in broth. The settings on record: Staphylococcus aureus. It counts as cell-based.
Series [3] concerns NIH3T3 mouse embryonic fibroblasts. Kind of series: Mammalian cytotoxicity assay (CellTiter 96 AQueous One Solution). Type of series: cell-based. Particulars: NIH3T3 cells, 24 hr exposure; concentration with 50% of control signal. How it is done:
Mammalian cytotoxicity assays were performed using NIH3T3 mouse embryonic fibroblasts (ATCC CRL-1658), and cytotoxicity was measured using the CellTiter 96® AQueous One Solution Cell Proliferation Assay (Promega, Madison, Wis., Cat: G3582), according to the manufacturer's recommendations.
A control of DMSO was also included (wells in column A01, and A12).
An exponentially growing population of NIH/3T3 mouse embryonic fibroblast cells was trypsinized into single cell suspension and seeded at 3000 cells per 100 μl in all wells, except column 11 and 12 of a sterile 96-well flat bottom plate. […]
The plate was visually inspected under a dissecting microscope, and the absorbance at 490 nm was read using a Spectramax Plus Spectrophotometer, with wells A12, and B12 reserved as blanks (FIG. 3). The signal of compound alone (well All) was verified not to contribute to the absorbance at this wavelength. Next, 20 μl of the CellTiter 96® AQueous One Solution Cell Proliferation Assay (Promega, Madison, Wis., Cat: G3582) was added to each well, and the plate was read after 3 hr of incubation. […]

The test system of series [4] is MRSA NRS108. Kind of series: Minimal Inhibitory Concentration in broth. The settings on record: Staphylococcus aureus.
For series [5], the system named is B. subtilis 1A1. Kind of series: Minimal Inhibitory Concentration in broth. Particulars: Bacillus subtilis, 1A1, B. subtilis 1A1.
The next series has as its system C. difficile 2001. Description: Minimal Inhibitory Concentration in broth. Particulars: Clostridioides difficile, 2001, C. difficile 2001. It counts as cell-based.
A further series deals with E. faecalis BM4147 (VRE). Description: Growth inhibition on solid agar (5 μl spot on bacterial lawn). Type of series: cell-based. The settings on record: minimal concentration giving observable zone of no growth, MHB agar.
Another series concerns MRSA NRS1. The description is as above. Type of series: cell-based, Staphylococcus aureus. Particulars: minimal concentration giving observable zone of no growth, MHB agar.
Series [6] deals with E. faecalis ATCC 51575 (VRE). The series is described as above. The settings on record: minimal concentration giving observable zone of no growth, MHB agar. It counts as cell-based.
The subject of another series is human red blood cells. It counts as cell-based. The procedure: The effect of NOVO3 on the hemolysis of human red blood cells was also tested. A total of 10 ml of expired packed red blood cells from the blood bank was gently added to 80 ml of PBS (Phosphate buffered saline), and pelleted at 1000 g for 5 minutes at 4° C. The upper phase and buffy layer (white blood cells) were removed. The cells are repeatedly washed by gentle mixing with PBS, and centrifugation until the upper phase is clear. In the last wash, 40 ml of 1×PBS with 0.05% BSA was added to half of the red blood cells while 40 ml of 1×PBS without BSA was added to the other half. The upper phase of the last wash was removed to leave a total volume of about 10 ml. The concentration of the red blood cells was measured by using the spectrophometer at 600 nm. […]
The compound NOVO3 is two-fold serially diluted (similar to that described above for mammalian NIH3T3 cytotoxicity assay) as 100× concentration in DMSO, ranging from 12.5 μg/ml to 3200 μg/ml. […] After thorough mixing, the absorbance at 450 nm was read using a Spectramax Plus Spectrophotometer, with wells A12, and B12 reserved […], using wells with only 1×PBS as blanks.
The absorbance at 450 nm measured the amount of hemoglobin released by the lysis of red blood cells (FIG. 4). […]

Series [7] deals with E. faecalis ATCC 51299 (VRE). Kind of series: Growth inhibition on solid agar (5 μl spot on bacterial lawn). Type of series: cell-based. Particulars: minimal concentration giving observable zone of no growth, MHB agar.

Values after ≈ are worked out from the molar mass of the structure shown.

Usually MIC stands for the smallest concentration in the dilution series that meets the test's criterion for growth inhibition. Take `CC1/C=C/C=C\C=C\CC(C)C(OC2OC(C)C(O)C(N)C2O)C\C=C/C=C/C=C\C(=O)NC1` (stereo not shown) [NOVO3]: the “Growth Inhibition with 5 μl of NOVO3” value with B. subtilis 1A1 [1] is 0.125 µg/mL; in the series with B. anthracis Sterne, 1.25 µg/mL; in the series with MRSA NRS108 [2], 1.25 µg/mL; in the series on E. faecalis BM4147 (VRE) it was 1.25 µg/mL; in the series on MRSA NRS1, 1.25 µg/mL; in series [6], 5 µg/mL. Moreover, in series [7], the “Growth Inhibition with 5 μl of NOVO3” value stood at 1.25 µg/mL. Moreover, the MIC with C. difficile 196 came out at 8 µg/mL; against MSSA 33591 (MHB), 8 µg/mL (≈ 16.9 µM); in the series on MSSA 33591 (MHB + 0.05% BSA), 0.25 µg/mL; in the series on MSSA 29213 (MHB), 8 µg/mL (≈ 16.9 µM); in the series on MSSA 29213 (MHB + 0.05% BSA) it was 0.25 µg/mL; in the series on MRSA NRS108 [4] (MRSA NRS108, MHB (Table 3)), 8 µg/mL (≈ 16.9 µM). The minimal inhibitory concentration (MIC) is 4 to 8 µg/mL (≈ 8.46 to 16.9 µM) with MRSA NRS108 [4] (MRSA NRS108, MHB (Table 4B, serum study)); 0.25 to 0.5 µg/mL with MRSA NRS108 [4] (MRSA NRS108, MHB + 0.05% BSA); 0.25 to 0.5 µg/mL in the series with MRSA NRS108 [4] (MRSA NRS108, MHB + 10% Calf Bovine Serum); 0.25 µg/mL with MRSA NRS108 [4] (MRSA NRS108, MHB + 40% Calf Bovine Serum); 0.25 µg/mL (≈ 0.529 µM) in the series on MRSA NRS108 [4] (MRSA|NRS108, MRSA NRS108, GM (Dulbecco's Modified Eagle's medium with 10% bovine calf serum)); 3 ± 1.3 µg/mL (≈ 6.35 µM) against B. subtilis 1A1 [5] (MHB (Table 3)). Further, the MIC against B. subtilis 1A1 [5] (MHB (Table 4, serum study)) is 3 ± 1.3 µg/mL (≈ 6.35 µM); in the series with B. subtilis 1A1 [5] (MHB + 0.02% Tween 80), 0.25 µg/mL; in the series on B. subtilis 1A1 [5] (MHB + 0.05% BSA), 0.166 ± 0.08 µg/mL; in the series with B. subtilis 1A1 [5] (MHB + 10% Calf Bovine Serum), 0.144 µg/mL; in the series on B. subtilis 1A1 [5] (MHB + 10% human serum), 0.125 µg/mL; in the series with B. subtilis 1A1 [5] (MHB + 10% mouse serum) it was 0.125 µg/mL. Moreover, the results for the MIC in the series on B. subtilis 1A1 [5] (MHB + 40% Calf Bovine Serum), against C. difficile 2001 (MHB) and in the series with C. difficile 2001 (MHB + 0.05% BSA) were 0.125 µg/mL, 32 µg/mL (≈ 67.7 µM) and 8 µg/mL, respectively. In series [3], this compound registered an LD50 above 32 µg/mL. Also, the hemolysis entry with human red blood cells is recorded as “no significant hemolysis”.
Turning to Triton X100 [reference compound], the “absorbance at 450 nm (hemoglobin released)” value in the series on human red blood cells is recorded as 0.41.
